Consider four compounds from patent US11472723B2, “Method for removing heavy metals from an aqueous solution” (NEWSOUTH INNOVATIONS PTY LIMITED, priority 2016, dated 2022).

The conditions of series [1]: literature value (footnotes a-d); cited from earlier work.
The nature of series [2]: Ion flotation of lead ions with octanoyl-cysteine surfactant. The conditions noted are these: 5 ppm Pb, 0.01M surfactant. As for the experimental part:
(§1) An ICP-MS (Perkin Elmer, NexION 300D with Universal cell technology) was used to determine the arsenic, mercury and lead solution concentrations.
(§2) In similar ion flotation experiments, the removal rates for low levels of mercury and lead ions were also determined using the octanoyl-cysteine surfactant. The experiments were carried out using both air and pure N2 gas.

The conditions of series [3]: for As(III) / As(V) / Total As removal / Total As(V) reduced to As(III) / Total conc.: feed 5320.6 μg/L, 0.01M surfactant. As for the experimental part:
The As(V)/As(III) speciation measurements were carried out using a PE 200 Series HPLC, using a PRPX 100 Column, attached to a PE DRC-e (Dynamic Reaction Cell-e) ICPMS. 20 milli molar ammonium phosphate buffer was used as carrier solution at 1.5 ml/min with a matched Meinhart nebuliser and baffled spray chamber. The plasma conditions used were: 1500 W RF, at a gas flow rate of […].
Column solution samples after 30 minutes, and the solution remaining inside the column after 90 minutes, were sent for arsenic speciation determination analysis. It appears that after about half an hour the maximum adsorption of arsenic was obtained because no further foam was collected at the top of the column.

Another series in a line: Solubility in water. To be noted: for Solubility in water up to minimum 0.01M: Yes/No.
A short description of series [4]: Ion flotation of arsenic solution in bubble column, As by ICP-MS. To be noted: for Adsorption (%) / arsenic removal: time not stated; for Arsenic removal after 90 minutes / arsenic removal: flotation; for Arsenic removal after 90 minutes: 5 ppm arsenic solution. As for the experimental part: as §1
In a typical experiment, 0.01 M of the single chain octanoyl-cysteine surfactant was dissolved (with stirring and heating to not more than 65° C.) in a solution of arsenic (HAsO4^2−) 5 ppm containing NaOH 0.1 M (to keep the pH at about 8), which was then made up to 100 ml using Milli-Q water.
Two samples were taken after 30, 60 and 90 minutes and the arsenic concentration of each sample was determined by ICP-MS. The upper outlet foam was also collected in a waste container using an outlet tube. […]

Series [5] in a line: Ion flotation of mercury ions with octanoyl-cysteine surfactant. The conditions noted are these: 5 ppm Hg, 0.01M surfactant. As for the experimental part: as §1, §2
A further series is described as follows: Foaming test. The format is physicochemical. To be noted: about one tenth of CMC in water, shaken with air, Passed/Failed. As for the experimental part: A foaming test was performed by dissolving the test compound in water at a concentration of approximately one tenth of the CMC of the test compound. The solution was then placed in a stoppered vessel with air and shaken and a visual observation made as to whether a stable foam had been formed.

Series [6] in a line: Critical micelle concentration (CMC) in water. The class given is physicochemical. An excerpt:
In the bulk aqueous phase, surfactants form aggregates, such as micelles, at concentrations above the critical micelle concentration (CMC), where the hydrophobic tails form the core of the aggregate and the hydrophilic heads are in contact with the surrounding liquid. The CMC of a surfactant in an aqueous solution can be determined by a person skilled in the art using techniques known in the art. For example, the CMC of a surfactant can be determined by measuring changes in the conductance or surface tension of the solution at different concentrations of the surfactant.

Setting [7] is: As in the waste collector (after 30 mins.).
[8] abbreviates: As remaining in the flotation cell (after 90 mins).
The mark [9] stands for this setting: 5 ppm As, 0.01M surfactant, inlet gas Air.

SMILES strings stand for the structures. Values after ≈ are worked out from the molar mass of the structure shown. Values joined by “and” are separate entries in the source; they are usually repeats but may differ in a detail not shown here. Equal entries are not always repeated. Where two headings read alike, the source gives them in different places. Marks after values point to notes of the source that are not given here.

Source text for Solubility in water: The synthesized surfactants were compared to each other with respect to their water solubility, conductivity, critical micelle concentration and foaming ability to determine basic suitability for the ion flotation process.

Regarding `CCCCCCCC(=O)N[C@@H](CS)C(=O)O` [octanoyl-cysteine], the “CMC in water (M)” value in series [1] was 0.12*^a M. Also, the “Adsorption after 30 min (%)” value is recorded as 92% in series [2] (inlet gas Air); 94.9% in series [2] (inlet gas N2); 72.6% in series [4] (setting [9]); 99.6% in series [5] (inlet gas Air); 99.59% in series [5] (inlet gas N2). Further, the “Adsorption after 60 min (%)” value in series [2] (inlet gas Air) was 99.1%; in series [2] (inlet gas N2) it was 99.4%; in series [4] (setting [9]), 99.88%; in series [5] (inlet gas Air), 99.6%; in series [5] (inlet gas N2), 99.96%. Also, the “As(III)” value in series [3] (setting [7]) was 5259.4 µg/L; in series [3] (setting [8]), 6.2 µg/L. The “As(V)” value in series [3] (setting [7]) was 27.9 µg/L; in series [3] (setting [8]), 27.1 µg/L. For the same compound, the “Total As removal” value in series [3] (setting [7]) is reported as 99.38%; in series [3] (setting [8]), 99.38%; in series [3] (As remaining in the flotation cell (after 90 mins), listed as single chain octanoyl-cysteine) it was 99.38%. Besides, the “Total As(V) reduced to As(III)” value in series [3] (setting [7]) is 99.47%; in series [3] (As in the waste collector (after 30 mins.), listed as single chain octanoyl-cysteine), “about 99.47%”; in series [3] (setting [8]) it was 99.49%. Moreover, the results for the “Total conc.” value in series [3] (setting [7]) and in series [3] (setting [8]) were 5287.4 µg/L and 33.2 µg/L, respectively. Further, the “As (V) remaining in the column reduced to As (III)” value in series [3] (between the first 30 mins and 90 minutes, samples from inside the column) is reported as 0.02%. For the same compound, in “Solubility in water”, the “Solubility in water up to minimum 0.01M” value is given as “Yes”. For the same compound, the “Adsorption (%)” value was 99.9 (Air) % in series [4] (100 ml of 5 ppm arsenic solution, purified product, Air); 98.6 (N2) % and 99.4 (N2) % in series [4] (100 ml of 5 ppm arsenic solution, purified product, N2 gas, listed as single chain octanoyl cysteine); 93.8 (N2) % and 88.2 (N2) % in series [4] (100 ml of 5 ppm arsenic solution, raw product, N2 gas, listed as single chain octanoyl cysteine). In addition, the “Arsenic removal after 90 minutes” value in series [4] is 99.4%. In series [4], this compound gave an arsenic removal of 99.00%. For the same compound, the “average removal of arsenic” value in series [4] (tests 1 and 2, raw unpurified product, 5 ppm feeding solution, after 90 minutes) worked out at 91.00%; in series [4] (tests 3 and 4, purified (2 times recrystallized) product, after 30 minutes), 99.00%. In addition, the Foaming test entry in “Foaming test” is recorded as “Passed”.

Consider `CCCCCCCCSC[C@H](N)C(=O)O` [S-octyl cysteine, reference compound], for which the “CMC in water (M)” value in series [1] is reported as 0.006*^b M. In the series “Solubility in water”, the “solubility in water (in words)” value is recorded as “good solubility” and the “Solubility in water up to minimum 0.01M” value is “Yes”. Also, the “Adsorption after 30 min (%)” value in series [4] (100 ml of 5 ppm arsenic solution, surfactant 0.001 M (D-dodecanoyl cystine 0.01 × 10^−3 M)) was 0%. Further, in series [4], the “Arsenic removal after 90 minutes” value is 0% and the arsenic removal entry is given as “no arsenic removal was observed”. For the same compound, the “CMC (in words)” value in series [6] is “high CMC”. Moreover, in “Foaming test”, the Foaming test entry is reported as “Failed”. Further, in the series “Foaming test” (listed as single chain octyl based cysteine surfactant), the Foaming test result is reported as “failed the foaming test”.

In the case of `CCCCCCCCCCCC(=O)N[C@@H](CS)C(=O)O`, the “CMC in water (M)” value in series [1] is 0.02 × 10^−3*^d M. Moreover, in “Solubility in water”, the “solubility in water (in words)” value is recorded as “low solubility in water” and the “Solubility in water up to minimum 0.01M” value was “No”. Also, the solubility (as a rule, the concentration that dissolves in the medium under given conditions) in the series “Solubility in water” (water) amounted to 300 µM (≈ 91 µg/mL). The “CMC (in words)” value in series [6] is “low CMC values”. Moreover, the Foaming test entry in “Foaming test” is on record as “Passed”.

Turning to `CCCCCCCCNC(=O)N[C@@H](CSSC[C@H](NC(=O)NCCCCCCCC)C(=O)O)C(=O)O` [D-octyl isocyanate cystine], the “CMC in water (M)” value in series [1] was 0.008*^c M. For the same compound, the “CMC (in words)” value in series [6] was “acceptably high CMC values”. Further, the figures for the Foaming test entry in the series “Foaming test” and in “Foaming test” (listed as double chain-octyl isocyanate cystine) were “Failed” and “produced no foaming in solution”, respectively.
